From paper PMC6043372 (Journal of medicinal chemistry, 2018)
Converted amounts (≈) assume the structure as drawn.

Tests used:
M. bovis BCG [1] = assay type: cell-based, Mycobacterium bovis BCG
piniBAC promoter = assay type: cell-based, Mycobacterium bovis BCG; conditions: 0.4-100 μM, 24 h
Mtb H37Rv = system: Mtb H37Rv; set-up: species or system BALB/c mice; conditions: mouse, in vivo
[2] = lecithin-dodecane lipid layer, 24 h, 25°C
[3] = for levels in lung: CD-1, mouse, in vivo; for tolerability in PK study: 25 mg/kg PO single dose, mice
[4] = 100 mg/kg po daily over 4 weeks (24 doses)
physchem = conditions: pH 7.4
human red blood cells = assay: Compound-induced hemolysis of human red blood cells; conditions: hemolyze 50% of human RBCs vs 2% Triton X-100
[5] = Electrophilic reactivity to cysteamine by 1H NMR; assay type: physicochemical; conditions: DMSO-d6, 1% acetic acid, up to 24 h
M. bovis BCG [6] = assay type: cell-based, Mycobacterium bovis BCG; remark: listed apart in the source
M. bovis BCG [7] = assay: microbe, parasite or virus in culture; assay type: cell-based; conditions: Mycobacterium tuberculosis variant bovis BCG, read-out: MIC MIC50

CCCCCCCCn1cc(CN2CCC3(CC2)OCCO3)c2ccc(OC)cc21 [Compound 1, 8-[(6-methoxy-1-octyl-1H-indolyl-3-yl)methyl]-1,4-dioxa-8-azaspiro[4,5]decane]
kill of mycobacterial cultures by 48 h (time-kill) (M. bovis BCG [1]): still viable at 48h | induction of piniBAC promoter activity (piniBAC promoter): broadly similar to that of isoniazid | bacterial loads in lungs and spleen (CFU) (Mtb H37Rv): only reduced the splenic bacterial load | PAMPA Effective Permeability (Pe) [2]: Cannot be determined | levels in lung [3]: ~ 1 μM | adverse effects during treatment period [4]: no adverse effects were detected | solubility (physchem): 23.9 ± 0.8 µM (≈ 9.91 µg/mL) | HC50 (human red blood cells): 75 µM

CCCCCCCCn1cc(CN2CCC3(CC2)OCCCO3)c2ccc(OC)cc21 [Compound 12]
induction of piniBAC promoter activity (piniBAC promoter): increased the transcriptional activity of the piniBAC in a concentration dependent manner | electrophilic reactivity to cysteamine [5]: limited electrophilic reactivity | bacterial loads in lungs and spleen (CFU) (Mtb H37Rv): significantly inhibited bacterial growth in both organs | PAMPA Effective Permeability (Pe) [2]: Cannot be determined | tolerability in PK study [3]: did not cause obvious adverse effects | Lung concentration at 5 h ([3]; 25 mg/kg PO, CD1 mice): 1408 ng/g | levels in lung [3]: ~ 3 μM | adverse effects during treatment period [4]: no adverse effects were detected | HC50 (human red blood cells): 64 µM

CCCCCCCCn1cc(CN2CCCCCC2)c2c(F)cccc21 [Compound 71, 3-(azepan-1-ylmethyl)-4-fluoro-1-octyl-1H indole]
membrane potential (DiOC2 red/green ratio) (M. bovis BCG [6]): no depolarization at these early time points

CCCCCCCCn1cc(CN2CCC3(CC2)OCCCO3)c2ccc(C#N)cc21 [Compound 57e]
MIC50 (M. bovis BCG [7]): 0.5 to 0.7 µM (≈ 0.212 to 0.297 µg/mL)

CCCCCCCCn1cc(CN2CCC3(CC2)OC[C@H](C)O3)c2ccc(OC)cc21 [Compound 7]
HC50 (human red blood cells): 51 µM

CCCCCCCCn1cc(CN2CCC3(CC2)OCCCO3)c2ccc(OCCC)cc21 [Compound 57f]
MIC50 (M. bovis BCG [7]): 0.5 to 0.7 µM (≈ 0.228 to 0.32 µg/mL)

CCCCCCCCn1cc(CN2CCC3(CC2)OCCCO3)c2ccc(OC(C)C)cc21 [Compound 57g]
MIC50 (M. bovis BCG [7]): 0.5 to 0.7 µM (≈ 0.228 to 0.32 µg/mL)

CCCCCCCCn1cc(CN2CCC3(CC2)OC[C@@H](C)O3)c2ccc(OC)cc21 [Compound 8]
HC50 (human red blood cells): 75 µM

CCCCCCCCn1cc(CN2CCC3(CC2)OCCCS3)c2ccc(OC)cc21 [Compound 13]
induction of piniBAC promoter activity (piniBAC promoter): increased the transcriptional activity of the piniBAC in a concentration dependent manner | electrophilic reactivity to cysteamine [5]: limited electrophilic reactivity | PAMPA Effective Permeability (Pe) [2]: Cannot be determined | tolerability in PK study [3]: did not cause obvious adverse effects | solubility (physchem): 30.9 ± 1.3 µM (≈ 13.7 µg/mL)
